Source: US6479435B1, “Diaryl ethers and processes for their preparation and herbicidal and desiccant compositions containing them” (ISK Americas Incorporated, priority 1997, dated 2002)

How the values were obtained:
Assay type in all cases: in vivo
[1] = test system: soybean (Glycine max L., var. Pella 86, SOY); assay: Post-emerge greenhouse test, crop damage rating; settings: 14 days after application
How it was run: (§1)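 Compounds in acetone with 0.25% v/v non-ionic surfactant were track-sprayed at 187 l/ha over plants at the 2-3 leaf stage, at 63 to 1000 g ai/ha. Pots were bottom-watered. Injury was scored visually 14 days later on a 0-100 scale, where 0 is no damage and 100 is complete plant death.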

[2] = test system: common ragweed (Ambrosia artemisiifolia L., AMBEL); assay: Post-emerge greenhouse herbicide test, phytotoxicity rating; settings: 14 days after application
How it was run: as §1

[3] = test system: redroot pigweed (Amaranthus retroflexus, AMARE); assay: Pre-emerge greenhouse herbicide test, phytotoxicity rating; settings: 14 days after application, rating scale 0-100
How it was run: (§2)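 Seeds sown in sandy loam mix one day before track-sprayer application of compounds in acetone at 125–1000 g ai/ha (187 l/ha), then surface-watered to incorporate and bottom-watered. Visual rating 14 days after application on a 0–100 scale (0 = no damage, 100 = all plants dead).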

[4] = test system: common ragweed (Ambrosia artemisiifolia L., AMBEL); assay: as above; settings: 14 days after application, rating scale 0-100
How it was run: as §2

[5] = test system: large crabgrass (Digitaria sanguinalis, DIGSA); assay: as above; settings: 14 days after application, rating scale 0-100
How it was run: as §2

[6] = test system: barnyardgrass (Echinochloa crusgalli, ECHCG); assay: as above; settings: 14 days after application, rating scale 0-100
How it was run: as §2

[7] = test system: velvetleaf (Abutilon theophrasti, ABUTH); assay: as above; settings: 14 days after application, rating scale 0-100
How it was run: as §2

[8] = test system: green foxtail (Setaria viridis, SETVI); assay: as above; settings: 125 g ai/ha, 14 days after application, rating scale 0-100
How it was run: as §2

[9] = test system: lambsquarters (Chenopodium album, CHEAL); assay: as above; settings: 14 days after application, rating scale 0-100
How it was run: as §2

[10] = test system: Johnsongrass (Sorghum halepense, SORHA); assay: as above; settings: 14 days after application, rating scale 0-100
How it was run: as §2

[11] = test system: sicklepod (Cassia obtusifolia, CASOB); assay: as above; settings: 14 days after application, rating scale 0-100
How it was run: as §2

[12] = test system: ivyleaf morningglory (Ipomoea hederacea, IPOHE); assay: as above; settings: 14 days after application, rating scale 0-100
How it was run: as §2

[13] = test system: field corn (Zea mays L., var. Dekalb 535, CORN); assay: Pre-emerge greenhouse test, crop damage rating; settings: 14 days after application, rating scale 0-100
How it was run: as §2

[14] = test system: upland rice (Oryza sp., var.Tebonnet, RICE); assay: Pre-emerge greenhouse test, crop damage rating; settings: 14 days after application, rating scale 0-100
How it was run: as §2

[15] = test system: soybean (Glycine max L., var. Pella 86, SOY); assay: Pre-emerge greenhouse test, crop damage rating; settings: 14 days after application, rating scale 0-100
How it was run: as §2

[16] = test system: redroot pigweed (Amaranthus retroflexus, AMARE); assay: Post-emerge greenhouse herbicide test, phytotoxicity rating; settings: 14 days after application
How it was run: as §1

[17] = test system: large crabgrass (Digitaria sanguinalis, DIGSA); assay: as above; settings: 14 days after application
How it was run: as §1

[18] = test system: barnyardgrass (Echinochloa crusgalli, ECHCG); assay: as above; settings: 14 days after application
How it was run: as §1

[19] = test system: velvetleaf (Abutilon theophrasti, ABUTH); assay: as above; settings: 14 days after application
How it was run: as §1

[20] = test system: green foxtail (Setaria viridis, SETVI); assay: as above; settings: 14 days after application
How it was run: as §1

[21] = test system: lambsquarters (Chenopodium album, CHEAL); assay: as above; settings: 14 days after application
How it was run: as §1

[22] = test system: Johnsongrass (Sorghum halepense, SORHA); assay: as above; settings: 14 days after application
How it was run: as §1

[23] = test system: ivyleaf morningglory (Ipomoea hederacea, IPOHE); assay: as above; settings: 14 days after application
How it was run: as §1

[24] = test system: field corn (Zea mays L., var. Dekalb 535, CORN); assay: Post-emerge greenhouse test, crop damage rating; settings: 14 days after application
How it was run: as §1

[25] = test system: upland rice (Oryza sp., var.Tebonnet, RICE); assay: Post-emerge greenhouse test, crop damage rating; settings: 14 days after application
How it was run: as §1

With `Cn1nc(-c2cc(Oc3ncccc3C#N)c(Cl)cc2F)c(Cl)c1C(F)(F)F` [Compound 1-3] the “SOY crop damage rating (0-100)” value ([1]; 63 g al/ha) was 30, the “SOY crop damage rating (0-100)” value ([1]; 500 g al/ha) was 90 and the “AMBEL phytotoxicity rating (0-100)” value ([2]; 63 g al/ha) was 0. For the same molecule, the “AMBEL phytotoxicity rating (0-100)” value ([2]; 500 g al/ha) was 80, the “phytotoxicity rating AMARE” value ([3]; 125 g ai/ha) was 100 and the “phytotoxicity rating AMARE” value ([3]; 500 g ai/ha) was 100. The “phytotoxicity rating AMBEL” value ([4]; 125 g ai/ha) was 50, the “phytotoxicity rating AMBEL” value ([4]; 500 g ai/ha) was 50 and the “phytotoxicity rating DIGSA” value ([5]; 125 g ai/ha) was 20. For the same molecule, the “phytotoxicity rating DIGSA” value ([5]; 500 g ai/ha) was 0, the “phytotoxicity rating ECHCG” value ([6]; 125 g ai/ha) was 0 and the “phytotoxicity rating ECHCG” value ([6]; 500 g ai/ha) was 100. The “phytotoxicity rating ABUTH” value ([7]; 125 g ai/ha) was 20, the “phytotoxicity rating ABUTH” value ([7]; 500 g ai/ha) was 0 and the “phytotoxicity rating SETVI” value [8] was 95. For the same molecule, the “phytotoxicity rating CHEAL” value ([9]; 125 g ai/ha) was 90, the “phytotoxicity rating CHEAL” value ([9]; 500 g ai/ha) was 100 and the “phytotoxicity rating SORHA” value ([10]; 125 g ai/ha) was 0. For the same molecule, the “phytotoxicity rating SORHA” value ([10]; 500 g ai/ha) was 40, the “phytotoxicity rating CASOB” value ([11]; 125 g ai/ha) was 0 and the “phytotoxicity rating CASOB” value ([11]; 500 g ai/ha) was 80. For the same molecule, the “phytotoxicity rating IPOHE” value ([12]; 125 g ai/ha) was 0, the “phytotoxicity rating IPOHE” value ([12]; 500 g ai/ha) was 30 and the “crop damage rating CORN” value ([13]; 125 g ai/ha) was 0. For the same molecule, the “crop damage rating CORN” value ([13]; 500 g ai/ha) was 40, the “crop damage rating RICE” value ([14]; 125 g ai/ha) was 0 and the “crop damage rating RICE” value ([14]; 500 g ai/ha) was 30. For the same molecule, the “crop damage rating SOY” value ([15]; 125 g ai/ha) was 0, the “crop damage rating SOY” value ([15]; 500 g ai/ha) was 95 and the “AMARE phytotoxicity rating (0-100)” value ([16]; 63 g al/ha) was 100. For the same molecule, the “AMARE phytotoxicity rating (0-100)” value ([16]; 500 g al/ha) was 100, the “DIGSA phytotoxicity rating (0-100)” value ([17]; 63 g al/ha) was 0 and the “DIGSA phytotoxicity rating (0-100)” value ([17]; 500 g al/ha) was 80. For the same molecule, the “ECHCG phytotoxicity rating (0-100)” value ([18]; 63 g al/ha) was 0, the “ECHCG phytotoxicity rating (0-100)” value ([18]; 500 g al/ha) was 70 and the “ABUTH phytotoxicity rating (0-100)” value ([19]; 63 g al/ha) was 70. The “ABUTH phytotoxicity rating (0-100)” value ([19]; 500 g al/ha) was 100, the “SETVI phytotoxicity rating (0-100)” value ([20]; 63 g al/ha) was 0 and the “SETVI phytotoxicity rating (0-100)” value ([20]; 500 g al/ha) was 90. For the same molecule, the “CHEAL phytotoxicity rating (0-100)” value ([21]; 63 g al/ha) was 95, the “CHEAL phytotoxicity rating (0-100)” value ([21]; 500 g al/ha) was 100 and the “SORHA phytotoxicity rating (0-100)” value ([22]; 63 g al/ha) was 20. For the same molecule, the “SORHA phytotoxicity rating (0-100)” value ([22]; 500 g al/ha) was 80, the “IPOHE phytotoxicity rating (0-100)” value ([23]; 63 g al/ha) was 90 and the “IPOHE phytotoxicity rating (0-100)” value ([23]; 500 g al/ha) was 10. For the same molecule, the “CORN crop damage rating (0-100)” value ([24]; 63 g al/ha) was 0, the “CORN crop damage rating (0-100)” value ([24]; 500 g al/ha) was 10 and the “RICE crop damage rating (0-100)” value ([25]; 63 g al/ha) was 20. The “RICE crop damage rating (0-100)” value ([25]; 500 g al/ha) was 70.
